Measured values: paper PMC6985712 (Antimicrobial Agents and Chemotherapy, 2020)
Read-outs that look alike come from different tables or passages of the source.

Tests used:
KPC-2 [1] = target: T1, KPC-2 (Klebsiella pneumoniae, UniProt Q9F663); experiment: k2/K inactivation constant, reporter substrate method; format: biochemical
Procedure: Inactivation kinetic parameters were determined by using the reporter substrate method for the slow tight-binding inhibitor kinetic scheme ([38]). E + I ↔K EI ↔k−2k2 EI*
(§1) Protein was quickly mixed with 100 μM nitrocefin and various concentrations of BLI in reaction buffer, and the absorbance at 490 nm was measured immediately every 2 s for 180 s on a SpectraMax plate reader (Molecular Devices, San Jose, CA) at 37°C. The resulting progression curves of OD490 versus time at various BLI concentrations were imported into Prism software (GraphPad, San Diego, CA), and pseudo first-order rate constants kobs were calculated by using the following equation: P = Vs ⋅ (1 – e^–^k^obs ⋅ ^t)/kobs, where Vs is the enzyme NCF cleavage rate in the absence of BLI.

CTX-M-15 [2] = target: T2, CTX-M-15 (Escherichia coli, UniProt Q9EXV5); experiment: koff of enzyme activity recovery, jump dilution method; format: biochemical; settings: calculated using k2/K and koff
T2 construct: His tag; purchased Emerald Biostructures (Bainbridge Island, WA)
Procedure: (§2) After appropriate dilution, 100 μM NCF was added to the reaction mixture, and absorbance at 490 nm was recorded every 10 s using a plate reader. The reaction without the addition of BLI was also recorded and used to calculate uninhibited enzyme velocity Vs.
(§3) Purified enzyme at 1 μM in reaction buffer was mixed with BLIs at an 8-fold higher concentration than its stoichiometry ratio (determined in preliminary stoichiometry experiments). After 30 min incubation at 37°C, the reaction mixture was diluted from 100- to 30,000-fold depending on the enzyme in reaction buffer, and 100 μl of diluted enzyme was mixed with 100 μl of 400 μM NCF in reaction buffer. The absorbance at 490 nm was recorded every minute during 4 h at 37°C.

AmpC [3] = target: T3, AmpC (Enterobacter cloacae, UniProt P05364); experiment: as above; format: biochemical; settings: calculated using k2/K and koff
T3 construct: His tag; purchased Emerald Biostructures (Bainbridge Island, WA)
Procedure: as §2, §3

FRI-1 [4] = target: T4, FRI-1 (Enterobacter cloacae, UniProt A0A0M5L4T8); experiment: as above; format: biochemical; settings: calculated using k2/K and koff
Procedure: as §2, §3

KPC-2 [5] = target: T1, KPC-2; experiment: as above; format: biochemical; settings: calculated using k2/K and koff
Procedure: as §2, §3

BKC-1 [6] = target: T5, BKC-1 (Klebsiella pneumoniae, UniProt A0A0F6QEY8); experiment: as above; format: biochemical; settings: calculated using k2/K and koff
Procedure: as §2, §3

KPC-3 [7] = target: T6, KPC-3 (Klebsiella pneumoniae, UniProt Q9F663, H272Y); experiment: as above; format: biochemical
Procedure: as §2, §3

SME-2 [8] = target: T7, SME-2 (Serratia marcescens, UniProt P52682, V207Q); experiment: Kiapp determination with nitrocefin (method of Waley); format: biochemical, S. marcescens; settings: recombinant His-tagged enzyme; 10 min incubation at 37°C; 50 μM NCF
Procedure: (§4) The protein was mixed with various concentrations of inhibitors in 50 mM sodium phosphate (pH 7.0) and 0.1 mg/ml of bovine serum albumin buffer (reaction buffer), followed by incubation for 10 min at 37°C. Next, 50 μM nitrocefin (NCF; 10 μM for SHV-12 and 25 μM for BKC-1) was added, and substrate cleavage profiles were recorded at 490 nm every 10 s for 10 min. […] Kiapp values were calculated by method of Waley ([24]).

SHV-12 [9] = target: T8, SHV-12 (Klebsiella pneumoniae, UniProt P0AD64, E235K/G234S/L31Q); experiment: Inactivation kinetic profile, reporter substrate method; format: biochemical; settings: precluded k2/K calculation
T8 construct: His tag; purchased Emerald Biostructures (Bainbridge Island, WA)
Procedure: as §1

TEM-43 = TEM-43 (Escherichia coli, UniProt P62593, E102K/M180T/R162H); experiment: as above; format: biochemical; settings: precluded k2/K calculation
Procedure: as §1

KPC-2 [10] = target: T1, KPC-2; experiment: Stability of inhibitor after incubation with KPC-2, LC/MS; format: biochemical; settings: for degradation/hydrolysis of inhibitor by KPC-2: 1 µM inhibitor and 1 µM KPC-2, 37 °C, reaction buffer, 18 hours, LC/MS
SME-2 [11] = target: T7, SME-2; experiment: koff of enzyme activity recovery, jump dilution method; format: biochemical, S. marcescens
Procedure: as §2, §3

OXA-23 = OXA-23 (Acinetobacter baumannii, UniProt Q9L4P2); experiment: Kiapp determination with nitrocefin (method of Waley); format: biochemical; settings: recombinant His-tagged enzyme; 10 min incubation at 37°C; 50 μM NCF
Procedure: as §4

CTX-M-14 = target: T9, CTX-M-14 (Escherichia coli, UniProt Q9L5C7); experiment: as above; format: biochemical; settings: recombinant His-tagged enzyme; 10 min incubation at 37°C; 50 μM NCF
T9 construct: His tag; purchased Emerald Biostructures (Bainbridge Island, WA)
Procedure: as §4

NDM-1 = target: T10, NDM-1 (Klebsiella pneumoniae, UniProt C7C422); experiment: as above; format: biochemical
T10 construct: His tag; purchased Emerald Biostructures (Bainbridge Island, WA)
Procedure: as §4

CTX-M-15 [12] = target: T2, CTX-M-15; experiment: as above; format: biochemical; settings: recombinant His-tagged enzyme; 10 min incubation at 37°C; 50 μM NCF
Procedure: as §4

AmpC [13] = target: T3, AmpC; experiment: as above; format: biochemical; settings: recombinant His-tagged enzyme; 10 min incubation at 37°C; 50 μM NCF
Procedure: as §4

OXA-48 = target: T11, OXA-48 (Klebsiella pneumoniae, UniProt Q6XEC0); experiment: as above; format: biochemical; settings: recombinant His-tagged enzyme; 10 min incubation at 37°C; 50 μM NCF
T11 construct: His tag; purchased Emerald Biostructures (Bainbridge Island, WA)
Procedure: as §4

FRI-1 [14] = target: T4, FRI-1; experiment: as above; format: biochemical; settings: recombinant His-tagged enzyme; 10 min incubation at 37°C; 50 μM NCF
Procedure: as §4

VIM-1 = target: T12, VIM-1 (Pseudomonas aeruginosa, UniProt A0A0F7KYQ8); experiment: as above; format: biochemical
T12 construct: His tag; purchased Emerald Biostructures (Bainbridge Island, WA)
Procedure: as §4

KPC-2 [15] = target: T1, KPC-2; experiment: as above; format: biochemical; settings: recombinant His-tagged enzyme; 10 min incubation at 37°C; 50 μM NCF
Procedure: as §4

BKC-1 [16] = target: T5, BKC-1; experiment: as above; format: biochemical; settings: recombinant His-tagged enzyme; 10 min incubation at 37°C; 25 μM NCF
Procedure: as §4

SHV-12 [17] = target: T8, SHV-12; experiment: as above; format: biochemical; settings: recombinant His-tagged enzyme; 10 min incubation at 37°C; 10 μM NCF
Procedure: as §4

KPC-3 [18] = target: T6, KPC-3; experiment: as above; format: biochemical; settings: recombinant His-tagged enzyme; 10 min incubation at 37°C; 50 μM NCF
Procedure: as §4

ADC-7, KPC-2, and SHV-1 = system: ADC-7, KPC-2, and SHV-1; design: method as in PMID 26729491, PMID 26729496; settings: cited from earlier work
[19] = 1.2 nM KPC-2, 100 μM NCF reporter substrate
[20] = recombinant His-tagged enzyme, 10 min incubation at 37°C, 50 μM NCF

In the case of O=C(O)C[C@@H]1CC[C@H](NC(=O)Cc2cccs2)B(O)O1 [vaborbactam], the “KPC-2 inactivation kinetic profile” value (KPC-2 [1]; [19]) is reported as “slow onset of inhibition and nonlinear reaction profiles”, the Kd (CTX-M-15 [2]) is reported as 40 nM and the Kd (AmpC [3]) is reported as 220 nM. The Kd (FRI-1 [4]) was 509 nM, the Kd (KPC-2 [5]) was 7.8 nM and the Kd (BKC-1 [6]) was 33 nM. The Kd (KPC-3 [7]) was 4.4 nM, the Ki (SME-2 [8]) was 42 ± 5 nM and the inactivation kinetic profile (SHV-12 [9]) was “linear inactivation profiles”. The inactivation kinetic profile (TEM-43) was “linear inactivation profiles”, the “degradation/hydrolysis of inhibitor by KPC-2” value (KPC-2 [10]) was “no degradation” and the “degradation/hydrolysis of inhibitor by KPC-2” value (KPC-2 [10]; listed as Vaborbactam) was “not hydrolyzed”. It also gave a Kd (SME-2 [11]) of 47 nM, a Ki (OXA-23) of 66000 ± 11000 nM and a Ki (CTX-M-14) of 33 ± 13 nM. For the same compound, the “inhibition of enzyme (in words)” value (NDM-1; class B metalloenzyme) was “No inhibition”, the Ki (NDM-1; [20]) was over 160000 nM and the Ki (CTX-M-15 [12]) was 30 ± 4 nM. The Ki (AmpC [13]) was 35 ± 15 nM, the Ki (OXA-48) was 14000 ± 5000 nM and the Ki (FRI-1 [14]) was 170 ± 60 nM. For the same compound, the “inhibition of enzyme (in words)” value (VIM-1; class B metalloenzyme) was “No inhibition”, the Ki (VIM-1; [20]) was over 160000 nM and the Ki (KPC-2 [15]) was 56 ± 15 nM. It also gave a Ki (BKC-1 [16]) of 18 ± 2 nM, a Ki (SHV-12 [17]) of 21 ± 4 nM and a Ki (KPC-3 [18]) of 50 ± 16 nM.

For O=C(Cc1cccs1)N[C@@H](Cn1cc(C(=O)O)nn1)B(O)O [S02030], the “potency (in words)” value (ADC-7, KPC-2, and SHV-1) is listed as “nanomolar potency”.

For Cc1cccc(B(O)O)c1 [m-tolylboronic acid], the “KPC-2 inactivation kinetic profile” value (KPC-2 [1]) was “linear KPC-2 inactivation profile”.

With C[C@]1(Cn2ccnn2)[C@H](C(=O)O)N2C(=O)C[C@H]2S1(=O)=O [tazobactam, reference compound] the “KPC-2 inactivation kinetic profile” value (KPC-2 [1]; [19]) was “progressive enzyme activity inactivation” and the “degradation of inhibitor by KPC-2” value (KPC-2 [10]; same conditions, in 1 hour (data not shown)) was “completely degraded”.

In the case of O=Cc1ccccc1B(O)O [2-formylphenylboronic acid], the “KPC-2 inactivation kinetic profile” value (KPC-2 [1]; [19]) is reported as “linear KPC-2 inactivation profile”.
